Consider two compounds from ChEMBL document CHEMBL1681705, “Optimisation of ITK inhibitors through successive iterative design cycles” (Bioorg Med Chem Lett, 2011).

The target of assay [1] is MAP kinase-activated protein kinase 2 (Homo sapiens) (UniProt P49137). Put plainly: Inhibition of MAPKAP-K2 at 1 uM.
For assay [2], the target named is T1, Serine/threonine-protein kinase D2 (Homo sapiens) (UniProt Q9BZL6).
T1 sequence (whole entry): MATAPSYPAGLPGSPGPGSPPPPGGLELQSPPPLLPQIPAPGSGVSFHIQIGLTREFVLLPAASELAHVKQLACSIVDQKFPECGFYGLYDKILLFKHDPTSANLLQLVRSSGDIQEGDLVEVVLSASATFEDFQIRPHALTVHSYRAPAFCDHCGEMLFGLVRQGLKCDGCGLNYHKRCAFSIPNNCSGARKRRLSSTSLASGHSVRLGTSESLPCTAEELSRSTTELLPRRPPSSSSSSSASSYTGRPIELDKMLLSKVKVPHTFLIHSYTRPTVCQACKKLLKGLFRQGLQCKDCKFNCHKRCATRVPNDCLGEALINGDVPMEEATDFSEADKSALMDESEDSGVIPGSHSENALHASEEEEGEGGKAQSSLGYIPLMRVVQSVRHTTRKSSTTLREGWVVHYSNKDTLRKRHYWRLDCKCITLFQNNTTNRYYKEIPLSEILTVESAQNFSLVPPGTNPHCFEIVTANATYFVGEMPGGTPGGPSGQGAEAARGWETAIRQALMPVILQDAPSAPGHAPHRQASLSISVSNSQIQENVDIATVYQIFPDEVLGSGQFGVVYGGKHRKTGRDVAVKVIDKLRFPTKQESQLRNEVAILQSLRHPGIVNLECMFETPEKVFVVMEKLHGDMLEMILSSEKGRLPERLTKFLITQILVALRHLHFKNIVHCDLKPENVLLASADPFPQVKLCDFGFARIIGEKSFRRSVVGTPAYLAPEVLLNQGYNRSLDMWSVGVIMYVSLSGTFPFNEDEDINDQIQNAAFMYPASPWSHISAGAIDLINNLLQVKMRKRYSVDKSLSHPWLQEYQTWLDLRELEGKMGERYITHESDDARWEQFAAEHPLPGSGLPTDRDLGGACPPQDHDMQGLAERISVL
The assay is described as follows: Inhibition of PKD2 at 1 uM; values are per cent of control.

Assay [3] has as its target Mast/stem cell growth factor receptor Kit (Homo sapiens) (UniProt P10721). Put plainly: Inhibition of c-Kit at 1 uM; values are per cent of control.
Assay [4] addresses Dual specificity mitogen-activated protein kinase kinase 1 (Homo sapiens) (UniProt Q02750). Put plainly: Inhibition of MEK1 at 0.1 uM; values are per cent of control.
The target in assay [5] is Protein-tyrosine kinase 2-beta (Homo sapiens) (UniProt Q14289). Put plainly: Inhibition of Pyk2 at 0.1 uM; values are per cent of control.
Protein-tyrosine kinase 2-beta (Homo sapiens), sequence (Q14289 whole entry, looked up): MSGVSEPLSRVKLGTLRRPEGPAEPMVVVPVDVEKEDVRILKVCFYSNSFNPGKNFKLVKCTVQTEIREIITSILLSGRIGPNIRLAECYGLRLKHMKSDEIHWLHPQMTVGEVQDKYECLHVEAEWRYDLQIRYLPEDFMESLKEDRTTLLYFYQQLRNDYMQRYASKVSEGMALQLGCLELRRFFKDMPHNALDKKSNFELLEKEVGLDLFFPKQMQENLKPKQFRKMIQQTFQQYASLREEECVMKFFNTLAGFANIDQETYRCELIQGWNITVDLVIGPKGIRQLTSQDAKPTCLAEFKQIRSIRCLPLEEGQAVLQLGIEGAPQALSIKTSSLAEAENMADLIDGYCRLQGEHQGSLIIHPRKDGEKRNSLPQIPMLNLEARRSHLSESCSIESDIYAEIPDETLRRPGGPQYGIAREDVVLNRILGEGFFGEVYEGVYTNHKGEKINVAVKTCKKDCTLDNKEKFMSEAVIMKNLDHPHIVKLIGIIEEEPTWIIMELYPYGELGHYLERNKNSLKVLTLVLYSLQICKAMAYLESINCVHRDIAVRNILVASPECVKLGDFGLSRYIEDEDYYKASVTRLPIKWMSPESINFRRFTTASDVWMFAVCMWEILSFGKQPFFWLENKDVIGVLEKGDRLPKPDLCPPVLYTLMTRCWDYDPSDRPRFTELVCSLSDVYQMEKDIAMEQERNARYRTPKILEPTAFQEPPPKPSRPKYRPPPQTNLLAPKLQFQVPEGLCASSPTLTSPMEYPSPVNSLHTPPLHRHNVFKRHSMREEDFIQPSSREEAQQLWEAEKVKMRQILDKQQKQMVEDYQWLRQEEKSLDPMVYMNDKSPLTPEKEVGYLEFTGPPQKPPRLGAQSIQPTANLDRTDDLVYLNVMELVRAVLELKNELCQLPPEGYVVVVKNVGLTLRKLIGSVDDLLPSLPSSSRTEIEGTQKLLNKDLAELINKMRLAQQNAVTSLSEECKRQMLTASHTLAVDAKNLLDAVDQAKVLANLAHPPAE
The target in assay [6] is T2, Ephrin type-A receptor 3 (Homo sapiens) (UniProt P29320).
T2 sequence (whole entry): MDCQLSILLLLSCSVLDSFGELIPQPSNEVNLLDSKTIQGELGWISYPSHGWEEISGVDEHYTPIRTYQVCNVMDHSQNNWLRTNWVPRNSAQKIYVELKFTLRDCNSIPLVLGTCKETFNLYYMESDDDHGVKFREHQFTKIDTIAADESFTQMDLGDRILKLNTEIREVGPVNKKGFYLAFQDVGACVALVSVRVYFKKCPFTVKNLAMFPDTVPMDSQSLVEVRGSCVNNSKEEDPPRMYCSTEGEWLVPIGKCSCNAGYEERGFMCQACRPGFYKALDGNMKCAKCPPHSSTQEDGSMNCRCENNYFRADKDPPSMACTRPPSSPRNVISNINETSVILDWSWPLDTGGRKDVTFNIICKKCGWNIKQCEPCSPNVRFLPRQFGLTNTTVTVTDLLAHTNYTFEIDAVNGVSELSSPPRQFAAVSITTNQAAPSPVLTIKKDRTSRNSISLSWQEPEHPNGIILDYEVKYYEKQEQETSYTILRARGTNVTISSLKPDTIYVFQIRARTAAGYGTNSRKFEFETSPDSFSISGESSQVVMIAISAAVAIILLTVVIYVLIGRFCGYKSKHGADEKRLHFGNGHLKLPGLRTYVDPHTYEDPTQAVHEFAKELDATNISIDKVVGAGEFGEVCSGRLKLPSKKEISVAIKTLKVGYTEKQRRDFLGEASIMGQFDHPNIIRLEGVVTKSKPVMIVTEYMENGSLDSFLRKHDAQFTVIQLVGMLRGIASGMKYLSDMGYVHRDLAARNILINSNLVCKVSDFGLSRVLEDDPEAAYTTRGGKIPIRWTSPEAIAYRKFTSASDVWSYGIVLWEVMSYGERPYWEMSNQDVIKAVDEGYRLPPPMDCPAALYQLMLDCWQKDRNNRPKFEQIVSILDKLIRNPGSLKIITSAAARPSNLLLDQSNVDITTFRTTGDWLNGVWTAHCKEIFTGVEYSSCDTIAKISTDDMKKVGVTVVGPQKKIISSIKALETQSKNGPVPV
The assay is described as follows: Inhibition of EphA3 at 0.1 uM; values are per cent of control.

Assay [7] concerns the target Ephrin type-A receptor 5 (Homo sapiens) (UniProt P54756). The assay is described as follows: Inhibition of EphA5 at 0.1 uM; values are per cent of control.
Assay [8] has as its target Fibroblast growth factor receptor 2 (Homo sapiens) (UniProt P21802). Put plainly: Inhibition of FGFR2 at 0.1 uM; values are per cent of control.
The target in assay [9] is RAC-beta serine/threonine-protein kinase (Homo sapiens) (UniProt P31751). The assay is described as follows: Inhibition of PKBbeta at 0.1 uM; values are per cent of control.
RAC-beta serine/threonine-protein kinase (Homo sapiens), sequence (P31751 whole entry): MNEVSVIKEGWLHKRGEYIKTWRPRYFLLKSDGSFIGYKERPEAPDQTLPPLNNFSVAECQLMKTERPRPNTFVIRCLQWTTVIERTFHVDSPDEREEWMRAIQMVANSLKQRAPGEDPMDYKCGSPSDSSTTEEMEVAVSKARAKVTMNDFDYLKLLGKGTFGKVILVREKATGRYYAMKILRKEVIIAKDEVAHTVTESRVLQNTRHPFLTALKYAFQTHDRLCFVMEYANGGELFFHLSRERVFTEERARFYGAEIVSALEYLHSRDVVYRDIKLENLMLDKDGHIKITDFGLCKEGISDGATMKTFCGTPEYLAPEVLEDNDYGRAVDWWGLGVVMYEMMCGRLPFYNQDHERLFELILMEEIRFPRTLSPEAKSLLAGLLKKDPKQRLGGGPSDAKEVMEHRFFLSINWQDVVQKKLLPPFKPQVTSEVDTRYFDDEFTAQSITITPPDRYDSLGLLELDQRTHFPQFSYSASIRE
The target in assay [10] is Cyclin-dependent kinase 5/CDK5 activator 1 (Homo sapiens) (UniProt Q00535+Q15078). The assay is described as follows: Inhibition of CDK5/p35 at 0.1 uM; values are per cent of control.
Cyclin-dependent kinase 5/CDK5 activator 1 (Homo sapiens), sequence (Q00535 whole entry): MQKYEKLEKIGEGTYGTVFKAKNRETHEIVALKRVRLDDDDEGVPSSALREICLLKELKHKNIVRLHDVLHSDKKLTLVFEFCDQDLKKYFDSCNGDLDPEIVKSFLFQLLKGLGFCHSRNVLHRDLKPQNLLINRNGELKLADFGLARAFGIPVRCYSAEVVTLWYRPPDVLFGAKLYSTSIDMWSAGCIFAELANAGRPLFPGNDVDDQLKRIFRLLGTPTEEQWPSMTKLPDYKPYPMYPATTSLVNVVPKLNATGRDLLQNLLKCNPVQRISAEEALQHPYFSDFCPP
Cyclin-dependent kinase 5/CDK5 activator 1 (Homo sapiens), sequence (Q15078 99-307 partner limits assumed): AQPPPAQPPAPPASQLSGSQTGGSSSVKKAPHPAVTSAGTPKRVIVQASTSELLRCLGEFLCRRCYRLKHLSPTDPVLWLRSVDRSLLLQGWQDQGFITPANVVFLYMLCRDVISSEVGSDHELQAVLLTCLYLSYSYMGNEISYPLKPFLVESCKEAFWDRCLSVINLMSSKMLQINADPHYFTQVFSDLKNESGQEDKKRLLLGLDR

Dual specificity mitogen-activated protein kinase kinase 1 (Homo sapiens), sequence (Q02750 whole entry): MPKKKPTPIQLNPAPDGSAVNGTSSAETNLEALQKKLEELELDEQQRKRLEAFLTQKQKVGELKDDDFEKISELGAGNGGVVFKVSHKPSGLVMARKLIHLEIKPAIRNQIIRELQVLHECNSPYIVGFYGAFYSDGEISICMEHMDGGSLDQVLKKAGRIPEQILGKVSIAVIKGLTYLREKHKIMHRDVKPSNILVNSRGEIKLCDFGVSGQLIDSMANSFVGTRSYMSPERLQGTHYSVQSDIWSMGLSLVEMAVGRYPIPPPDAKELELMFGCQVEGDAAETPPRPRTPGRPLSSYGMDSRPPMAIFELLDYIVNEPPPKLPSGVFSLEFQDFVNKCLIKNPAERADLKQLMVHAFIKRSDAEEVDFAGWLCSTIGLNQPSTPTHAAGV
MAP kinase-activated protein kinase 2 (Homo sapiens), sequence (P49137 whole entry, looked up): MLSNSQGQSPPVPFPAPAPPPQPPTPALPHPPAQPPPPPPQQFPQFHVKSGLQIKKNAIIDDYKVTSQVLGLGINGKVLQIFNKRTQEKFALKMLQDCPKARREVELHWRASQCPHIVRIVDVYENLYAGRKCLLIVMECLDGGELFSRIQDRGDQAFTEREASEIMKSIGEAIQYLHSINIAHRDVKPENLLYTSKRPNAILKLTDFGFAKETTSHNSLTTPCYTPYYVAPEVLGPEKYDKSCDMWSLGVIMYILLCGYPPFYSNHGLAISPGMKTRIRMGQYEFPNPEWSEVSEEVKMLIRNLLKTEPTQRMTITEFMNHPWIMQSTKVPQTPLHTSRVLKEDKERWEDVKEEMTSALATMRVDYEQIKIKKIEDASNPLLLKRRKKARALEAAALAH
Ephrin type-A receptor 5 (Homo sapiens), sequence (P54756 whole entry): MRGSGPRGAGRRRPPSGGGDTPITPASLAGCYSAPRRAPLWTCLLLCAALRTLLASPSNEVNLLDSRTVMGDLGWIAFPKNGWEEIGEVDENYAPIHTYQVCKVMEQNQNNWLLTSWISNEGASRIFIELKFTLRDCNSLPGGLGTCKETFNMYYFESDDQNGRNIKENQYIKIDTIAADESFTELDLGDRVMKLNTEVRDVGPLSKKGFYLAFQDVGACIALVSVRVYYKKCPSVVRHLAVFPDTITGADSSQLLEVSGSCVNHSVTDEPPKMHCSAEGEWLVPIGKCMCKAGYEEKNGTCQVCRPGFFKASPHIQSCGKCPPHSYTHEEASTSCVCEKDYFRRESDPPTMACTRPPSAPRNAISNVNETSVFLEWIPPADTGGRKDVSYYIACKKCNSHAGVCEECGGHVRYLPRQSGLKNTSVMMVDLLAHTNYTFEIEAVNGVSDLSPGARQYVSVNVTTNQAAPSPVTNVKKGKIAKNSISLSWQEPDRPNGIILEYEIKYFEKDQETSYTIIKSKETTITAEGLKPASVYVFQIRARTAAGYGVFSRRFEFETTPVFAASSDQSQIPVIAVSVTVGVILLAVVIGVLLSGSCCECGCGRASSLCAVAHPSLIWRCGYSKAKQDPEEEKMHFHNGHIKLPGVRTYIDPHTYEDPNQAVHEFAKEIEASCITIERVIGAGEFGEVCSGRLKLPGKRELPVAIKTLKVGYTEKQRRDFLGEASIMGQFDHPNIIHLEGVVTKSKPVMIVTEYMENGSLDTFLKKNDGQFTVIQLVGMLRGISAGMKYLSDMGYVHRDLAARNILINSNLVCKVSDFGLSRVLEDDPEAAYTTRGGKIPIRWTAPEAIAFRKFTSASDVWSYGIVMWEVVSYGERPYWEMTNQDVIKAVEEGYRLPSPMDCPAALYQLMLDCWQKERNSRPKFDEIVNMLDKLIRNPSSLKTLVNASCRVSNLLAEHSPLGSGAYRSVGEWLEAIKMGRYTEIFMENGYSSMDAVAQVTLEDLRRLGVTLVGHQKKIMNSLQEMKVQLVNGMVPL
Mast/stem cell growth factor receptor Kit (Homo sapiens), sequence (P10721 whole entry): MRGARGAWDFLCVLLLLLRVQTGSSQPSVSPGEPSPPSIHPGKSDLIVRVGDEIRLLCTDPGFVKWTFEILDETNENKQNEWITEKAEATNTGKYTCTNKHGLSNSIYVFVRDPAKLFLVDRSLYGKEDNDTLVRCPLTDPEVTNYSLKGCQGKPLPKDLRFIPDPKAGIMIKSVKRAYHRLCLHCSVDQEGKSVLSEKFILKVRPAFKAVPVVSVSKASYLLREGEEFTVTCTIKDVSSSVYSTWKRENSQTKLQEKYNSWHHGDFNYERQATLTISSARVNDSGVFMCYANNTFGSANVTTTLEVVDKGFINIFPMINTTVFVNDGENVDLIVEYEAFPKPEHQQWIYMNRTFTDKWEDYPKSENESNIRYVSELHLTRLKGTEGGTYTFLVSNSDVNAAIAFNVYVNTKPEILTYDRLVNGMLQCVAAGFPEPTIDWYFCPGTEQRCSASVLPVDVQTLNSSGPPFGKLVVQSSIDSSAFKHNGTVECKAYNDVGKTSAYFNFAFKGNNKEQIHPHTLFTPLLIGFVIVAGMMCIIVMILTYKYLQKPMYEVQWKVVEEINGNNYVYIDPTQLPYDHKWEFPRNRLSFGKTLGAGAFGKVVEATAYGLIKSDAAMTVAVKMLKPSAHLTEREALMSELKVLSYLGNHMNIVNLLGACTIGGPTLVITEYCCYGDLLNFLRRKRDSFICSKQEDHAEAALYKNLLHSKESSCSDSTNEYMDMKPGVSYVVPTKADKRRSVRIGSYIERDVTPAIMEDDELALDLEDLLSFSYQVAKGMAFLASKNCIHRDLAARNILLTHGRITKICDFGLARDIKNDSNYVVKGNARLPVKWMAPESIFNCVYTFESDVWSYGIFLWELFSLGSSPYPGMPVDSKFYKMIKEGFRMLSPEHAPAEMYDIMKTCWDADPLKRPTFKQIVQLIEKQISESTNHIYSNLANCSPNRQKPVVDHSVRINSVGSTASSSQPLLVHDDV

A word on the inhibition: it is the share of the control response that was lost under treatment. With `Cc1ccc2cc(-c3n[nH]c4ccc(NC5CCNC5)cc34)[nH]c2c1` (stereo not given), in assay [1], the inhibition came out at 48%. In addition, the residual activity in assay [2] turned out to be 12%; in assay [3], 69%; in assay [4], 51%; in [5], 71%; in assay [6], 89%; in assay [7] it was 86%. Further, the results for the residual activity in assay [8], in assay [9] and in assay [10] were 8%, 107% and 19%, respectively.

`Cc1ccc2cc(-c3n[nH]c4ccc(NC5CCN(Cc6ccccc6)CC5)cc34)[nH]c2c1` came in with an inhibition in [1] of 93%. Moreover, the residual activity in assay [2] was found to be 80%; in [3], 122%; in assay [4], 96%; in assay [5] it was 66%; in [6], 81%; in assay [7], 81%. The residual activity in assay [8] is 51%; in [9] it was 103%; in assay [10], 20%.
